Data on six molecules can be found in paper PMC10763615, “Identification and engineering of potent cyclic peptides with selective or promiscuous binding through biochemical profiling and bioinformatic data analysis” (RSC Chemical Biology, 2023).

Where two headings read alike, the source gives them in different places. Positions of bridges follow the written chain, without caps; N, C: chain ends. Residues, ends and D or L forms follow the SMILES beside them.

What all share (assay type): binding
In assay [1] the target is T1, FGF-R4 ECD (Homo sapiens, UniProt P22455).
T1 construct: DNA constructs for the extracellular domain (ECD) of human FGF-; HPC4 (C); made in house; host or cells: HEK 293-6E
T1 sequence (P22455 22-369 limits assumed): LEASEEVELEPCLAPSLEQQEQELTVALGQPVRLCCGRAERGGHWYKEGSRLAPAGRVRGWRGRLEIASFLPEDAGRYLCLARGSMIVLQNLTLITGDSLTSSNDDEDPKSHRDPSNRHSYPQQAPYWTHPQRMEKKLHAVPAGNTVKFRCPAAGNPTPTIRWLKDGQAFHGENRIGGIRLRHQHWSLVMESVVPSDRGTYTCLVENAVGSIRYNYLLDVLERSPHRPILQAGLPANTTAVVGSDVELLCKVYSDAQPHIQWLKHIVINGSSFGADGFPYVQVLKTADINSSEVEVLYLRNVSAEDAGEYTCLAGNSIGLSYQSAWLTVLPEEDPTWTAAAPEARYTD
The assay is described as follows: single concentration BLI of crude peptides. Particulars: read-out: KD (4). As for the experimental part:
(§1) KD affinity binding measurements were obtained by biolayer interferometry (BLI) instruments (Fortebio Octet HTX, or Sartorius Octet RH16 using either 8 or 16 channel mode.
For single concentration binding experiments, 50 μM peptide stocks in folding buffer were diluted 1:50 in mRNA display selection buffer (PBS pH7.4 supplemented with 0.05% Tween-20 and 0.01% BSA) in either a 96 well black plate, or a 384 well tilted bottom microplate (ForteBio). Biotinylated FGF-R protein was loaded onto Streptavidin-functionalised biosensors (ForteBio) and immersed into ~1 μM peptide to obtain association kinetics curves. Dissociation kinetics curves were obtained by subsequent immersion of ligand-associated loaded sensors into a 1:50 dilution of folding buffer in mRNA display selection buffer. Fitted KD data was adjusted for concentration as determined by UPLC-CAD. […]

In assay [2] the target is T2, FGF-R1C ECD (Homo sapiens, UniProt P11362).
T2 sequence (P11362 22-376 limits assumed): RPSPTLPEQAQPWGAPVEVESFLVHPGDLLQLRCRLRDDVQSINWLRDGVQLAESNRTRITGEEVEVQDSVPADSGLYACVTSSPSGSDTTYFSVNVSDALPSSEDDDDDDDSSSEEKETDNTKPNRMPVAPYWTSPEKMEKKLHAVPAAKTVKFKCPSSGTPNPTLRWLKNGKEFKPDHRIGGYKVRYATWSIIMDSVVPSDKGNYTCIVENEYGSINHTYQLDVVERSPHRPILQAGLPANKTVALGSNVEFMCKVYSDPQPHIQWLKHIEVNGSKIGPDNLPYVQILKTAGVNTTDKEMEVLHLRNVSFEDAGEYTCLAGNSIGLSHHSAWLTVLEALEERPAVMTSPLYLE
The assay is described as follows: biochemical. Also on record: DNA constructs for the extracellular domain (ECD) of human FGF-; HPC4 (C); made in house; host or cells: HEK 293-6E. As for the experimental part: as §1
(§2) For single concentration binding experiments, 50 μM peptide stocks in folding buffer were diluted 1:50 in mRNA display selection buffer (PBS pH7.4 supplemented with 0.05% Tween-20 and 0.01% BSA) in either a 96 well black plate, or a 384 well tilted bottom microplate (ForteBio). Biotinylated FGF-R protein was loaded onto Streptavidin-functionalised biosensors (ForteBio) and immersed into ~1 μM peptide to obtain association kinetics curves. Dissociation kinetics curves were obtained by subsequent immersion of ligand-associated loaded sensors into a 1:50 dilution of folding buffer in mRNA display selection buffer. Fitted KD data was adjusted for concentration as determined by UPLC-CAD.
(§3) For accurate multi-concentration KD determination, dilution series of each peptide were made, and association and dissociation kinetics curves were obtained as above for each concentration to fit a multi-point KD binding model. Data collection and analysis was performed using the Octet Instrument Control […]
(§4) concentration assay kinetics curves shown in supplementary Figure S 19-24.

Assay [3] addresses T3, FGF-R3C ECD (Homo sapiens, UniProt P22607).
T3 sequence (P22607 23-375 limits assumed): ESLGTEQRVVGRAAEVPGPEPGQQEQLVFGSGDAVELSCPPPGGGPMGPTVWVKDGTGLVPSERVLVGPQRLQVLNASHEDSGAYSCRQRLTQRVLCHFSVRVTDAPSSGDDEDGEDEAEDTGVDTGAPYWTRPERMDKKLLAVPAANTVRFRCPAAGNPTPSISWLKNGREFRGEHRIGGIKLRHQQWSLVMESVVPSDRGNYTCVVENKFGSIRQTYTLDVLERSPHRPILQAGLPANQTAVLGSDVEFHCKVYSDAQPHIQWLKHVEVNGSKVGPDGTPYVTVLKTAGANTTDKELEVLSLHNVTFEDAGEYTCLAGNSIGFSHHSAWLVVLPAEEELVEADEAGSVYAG
Put plainly: biochemical. Also on record: DNA constructs for the extracellular domain (ECD) of human FGF-; HPC4 (C); made in house; host or cells: HEK 293-6E. As for the experimental part: as §1, §2, §3, §4

[4] abbreviates: crude T18 selection 1 (1:1:1) peptides, single concentration BLI (Table S4).
Where [5] appears, read: crude NNK peptides, single concentration BLI (Table S3).

Turning to `CC[C@H](C)[C@@H]1NC(=O)[C@H](Cc2ccc(O)cc2)NC(=O)[C@H](Cc2c[nH]c3ccccc23)NC(=O)[C@H](CCCCN)NC(=O)[C@H](C(C)C)NC(=O)[C@H](Cc2ccccc2)NC(=O)[C@H](CCCCN)NC(=O)[C@H](CC(=O)O)NC(=O)[C@@H](NC(=O)[C@H](CCSC)NC(C)=O)CSSC[C@@H](C(=O)NCC(=O)N[C@@H](CO)C(=O)NCC(=O)N[C@@H](CO)C(=O)N[C@@H](CCC(=O)O)C(=O)N[C@@H](CCC(=O)O)C(=O)NCC(=O)N[C@@H](CO)C(=O)NCC(=O)N[C@@H](CO)C(=O)N[C@@H](CC(=O)O)C(=O)N[C@@H](Cc2ccc(O)cc2)C(=O)N[C@@H](CCCCN)C(=O)N[C@@H](CC(=O)O)C(=O)N[C@@H](CC(=O)O)C(=O)N[C@@H](CC(=O)O)C(=O)N[C@@H](CC(=O)O)C(=O)N[C@@H](CCCCN)C(N)=O)NC(=O)[C@H](Cc2c[nH]cn2)NC(=O)[C@H](CCCNC(=N)N)NC(=O)[C@H](Cc2ccccc2)NC(=O)[C@H](C(C)C)NC1=O` (Ac-MCDKFVKWYIVFRHCGSGSEEGSGSDYKDDDDK-NH2; disulfide 2-15), the Kd (as a rule, a measure of binding affinity in units of concentration) was 0.001 µM in assay [1] (setting [4]), above 10 µM in assay [2] and above 10 µM in assay [3].

For `CSCC[C@H](NC(C)=O)C(=O)N[C@H]1CSSC[C@@H](C(=O)NCC(=O)N[C@@H](CO)C(=O)NCC(=O)N[C@@H](CO)C(=O)N[C@@H](CCC(=O)O)C(=O)N[C@@H](CCC(=O)O)C(=O)NCC(=O)N[C@@H](CO)C(=O)NCC(=O)N[C@@H](CO)C(=O)N[C@@H](CC(=O)O)C(=O)N[C@@H](Cc2ccc(O)cc2)C(=O)N[C@@H](CCCCN)C(=O)N[C@@H](CC(=O)O)C(=O)N[C@@H](CC(=O)O)C(=O)N[C@@H](CC(=O)O)C(=O)N[C@@H](CC(=O)O)C(=O)N[C@@H](CCCCN)C(N)=O)NC(=O)[C@H](Cc2ccccc2)NC(=O)[C@H](CCCCN)NC(=O)CNC(=O)[C@H](CCCCN)NC(=O)[C@H](Cc2c[nH]c3ccccc23)NC(=O)[C@H](CC(C)C)NC(=O)[C@H](CC(C)C)NC(=O)[C@H](Cc2ccccc2)NC(=O)[C@H](C)NC(=O)[C@H](CCCCN)NC(=O)[C@H](C)NC1=O` (Ac-MCAKAFLLWKGKFCGSGSEEGSGSDYKDDDDK-NH2; disulfide 2-14), the Kd in assay [1] (setting [4]), in assay [2] and in assay [3] was above 10 µM each time.

`CC[C@H](C)[C@@H]1NC(=O)[C@@H](NC(=O)[C@H](CCSC)NC(C)=O)CSSC[C@@H](C(=O)NCC(=O)N[C@@H](CO)C(=O)NCC(=O)N[C@@H](CO)C(=O)N[C@@H](CC(=O)O)C(=O)N[C@@H](Cc2ccc(O)cc2)C(=O)N[C@@H](CCCCN)C(=O)N[C@@H](CC(=O)O)C(=O)N[C@@H](CC(=O)O)C(=O)N[C@@H](CC(=O)O)C(=O)N[C@@H](CC(=O)O)C(=O)N[C@@H](CCCCN)C(N)=O)NC(=O)[C@H](Cc2c[nH]cn2)NC(=O)[C@H](CO)NC(=O)[C@H]([C@@H](C)CC)NC(=O)[C@H](CC(C)C)NC(=O)[C@H](Cc2ccc(O)cc2)NC(=O)[C@H](Cc2ccc(O)cc2)NC(=O)[C@H](Cc2ccccc2)NC(=O)[C@H](CC(C)C)NC(=O)[C@H](Cc2ccc(O)cc2)NC(=O)[C@H](CCCNC(=N)N)NC1=O` (Ac-MCIRYLFYYLISHCGSGSDYKDDDDK-NH2; disulfide 2-14): the Kd was 0.002 µM in assay [1] (setting [4]), above 10 µM in assay [2] and above 10 µM in assay [3].

On to `CSCC[C@H](N)C(=O)N[C@H]1CSSC[C@@H](C(=O)NCC(=O)N[C@@H](CO)C(=O)NCC(=O)N[C@@H](CO)C(=O)N[C@@H](CC(=O)O)C(=O)N[C@@H](Cc2ccc(O)cc2)C(=O)N[C@@H](CCCCN)C(=O)N[C@@H](CC(=O)O)C(=O)N[C@@H](CC(=O)O)C(=O)N[C@@H](CC(=O)O)C(=O)N[C@@H](CC(=O)O)C(=O)N[C@@H](CCCCN)C(N)=O)NC(=O)[C@H](CC(C)C)NC(=O)[C@H](C(C)C)NC(=O)[C@H](Cc2ccccc2)NC(=O)[C@@H]2CCCN2C(=O)[C@H](CC(C)C)NC(=O)[C@H](Cc2ccccc2)NC(=O)[C@H](CO)NC(=O)[C@H](CC(=O)O)NC(=O)[C@H](Cc2ccccc2)NC(=O)[C@H](C(C)C)NC1=O` (H-MCVFDSFLPFVLCGSGSDYKDDDDK-NH2; disulfide 2-13), for which the Kd in assay [1] (setting [5]) is above 10 µM; in assay [2], above 10 µM; in assay [3] it was 0.06 µM.

For `CC[C@H](C)[C@@H]1NC(=O)[C@H](CCC(=O)O)NC(=O)[C@H](CCCNC(=N)N)NC(=O)[C@H](CCCCN)NC(=O)[C@@H](NC(=O)[C@H](CCSC)NC(C)=O)CSSC[C@@H](C(=O)NCC(=O)N[C@@H](CO)C(=O)NCC(=O)N[C@@H](CO)C(=O)N[C@@H](CC(=O)O)C(=O)N[C@@H](Cc2ccc(O)cc2)C(=O)N[C@@H](CCCCN)C(=O)N[C@@H](CC(=O)O)C(=O)N[C@@H](CC(=O)O)C(=O)N[C@@H](CC(=O)O)C(=O)N[C@@H](CC(=O)O)C(=O)N[C@@H](CCCCN)C(N)=O)NC(=O)[C@H](Cc2ccccc2)NC(=O)[C@H](C(C)C)NC(=O)[C@H](CC(C)C)NC(=O)[C@H](Cc2c[nH]c3ccccc23)NC(=O)[C@H](Cc2ccc(O)cc2)NC(=O)[C@H](CCCCN)NC1=O` (Ac-MCKREIKYWLVFCGSGSDYKDDDDK-NH2; disulfide 2-13), the Kd is 0.008 µM in assay [1] (setting [4]), above 10 µM in assay [2] and above 10 µM in assay [3].

Take `CC[C@H](C)[C@@H]1NC(=O)[C@H](CC(N)=O)NC(=O)[C@@H](NC(=O)[C@H](CCSC)NC(C)=O)CSSC[C@@H](C(=O)NCC(=O)N[C@@H](CO)C(=O)NCC(=O)N[C@@H](CO)C(=O)N[C@@H](CC(=O)O)C(=O)N[C@@H](Cc2ccc(O)cc2)C(=O)N[C@@H](CCCCN)C(=O)N[C@@H](CC(=O)O)C(=O)N[C@@H](CC(=O)O)C(=O)N[C@@H](CC(=O)O)C(=O)N[C@@H](CC(=O)O)C(=O)N[C@@H](CCCCN)C(N)=O)NC(=O)[C@H](C(C)C)NC(=O)[C@H](CO)NC(=O)[C@H](CC(C)C)NC(=O)[C@H]([C@@H](C)CC)NC(=O)[C@H](CCCCN)NC(=O)[C@H](Cc2ccc(O)cc2)NC(=O)[C@H](CC(C)C)NC(=O)[C@H](CC(C)C)NC1=O` (Ac-MCNILLYKILSVCGSGSDYKDDDDK-NH2; disulfide 2-13): the Kd in assay [1] (setting [5]) was 0.105 µM; in assay [2], above 10 µM; in assay [3], above 10 µM.
